From PubChem BioAssay (NCI)
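Step 1: Grow cells in 96-well plates. Step 2: Expose to compound for 48 hours at 5 concentrations. Step 3: Interpolate endpoints linearly; if unreached, use highest concentration. Abbreviation: GI50, concentration required for 50% inhibition of growth. TGI is the concentration that stops growth completely.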

These compounds were tested on NCI-H226 lung (assay: DTP human tumour cell line panel, 48 h).
`COc1ccc(C2c3cc4c(cc3OC(NNS(=O)(=O)c3ccc(C)cc3)C2C)OCO4)cc1` (stereo not given) was tested, and the TGI was over 100 µM. `c1ccc(N=C2SC3=Nc4cccc5cccc(c45)N3C2=Nc2ccccc2)cc1` was tested, and the TGI was over 100 µM. `CCC12C=CCN3CCC4(C(=C(C(=O)OC)[C@@H]1O)Nc1ccccc14)C32` (stereo not given in full) gave a TGI of 2.71 µM. Compound `O=C(O)CN(CC(=O)O)C1CCCCC1N(CC(=O)O)CC(=O)NCCN=C=S` (stereo not given) has a TGI of over 100 µM. Compound `Oc1cc2c3c(c1)c1cc4c(cc1c[n+]3CC2)OCO4` has a TGI of 17.2 µM. Compound `COc1nc(N)c(C(=O)CCl)c(=O)n1C` has a TGI of 20.5 µM. With `O=C1CCC23CC(C=CC=C12)n1c(=O)n(-c2ccccc2)c(=O)n13` (stereo not given) the TGI was over 100 µM. With `[N-]=[N+]=Nc1cc(=O)oc2ccccc12` the TGI was over 100 µM. For `CC(=O)NC1=C(NCCC(C)C)C(=O)c2ccccc2C1=O`, the TGI was over 50 µM. With `Nc1cccc2cc(Cl)cnc12` the TGI was over 100 µM. `CC1=C(C)[C@@]2(C)O[C@@]2(C)O[C@@]2(C)O[C@@]12C` was tested, and the TGI was over 100 µM. With `O=C([O-])CC(=O)[O-].O=C([O-])CC(=O)[O-].[K+].[Pd+2]` the GI50 was over 100 µM and the TGI was over 100 µM.

What follows are compounds tested on PC-3 prostate (assay: DTP human tumour cell line panel, 48 h).
`O=c1[nH][nH]c(=O)n1Cc1ccccc1Cn1c(=O)[nH][nH]c1=O` was tested, and the TGI was over 100 µM. For `CCOC(=O)c1c2ccccc2n2c(N)c(C(N)=O)nnc12`, the TGI was over 100 µM. With `CC[C@@]1(O)C(=O)OCc2c1cc1n(c2=O)Cc2c-1nc1ccccc1c2/C=N\NC(=O)CN` the TGI was over 100 µM. For `CCOC(=O)C(NC(C)=O)(Nc1ccc(F)cc1)C(F)(F)F` (stereo not given), the TGI was over 100 µM. `CCOc1cc2c(cc1O)/C(=N\OC)C[C@@H]1[C@@H]2CC[C@]2(C)[C@@H](O)CC[C@@H]12` gave a TGI of over 30.7 µM. With `CC1(C)N=C(/C(Cl)=[N+](/[O-])C(=O)c2ccc(F)cc2)C(C)(C)N1O` the TGI was 31.3 µM. `COC(=O)[C@H](Cc1c[nH]c2ccccc12)NP(=O)(O)OCC1C=CC(n2cc(C)c(=O)[nH]c2=O)O1` (stereo not given in full) gave a TGI of over 100 µM. `COC(=O)[C@H]1CO[C@@H](C(C)(C)C)N1C(=O)N1C=CC(=O)C[C@@H]1C` gave a TGI of over 100 µM. `Clc1ccc(/C=C/c2nc3ccccc3s2)cc1Cl` showed a TGI of 3.66 µM. Compound `Cc1ccc(SCC(CSCCO)OCn2cnc3c2NC(N)=NC32OCCO2)cc1` (stereo not given) has a TGI of over 100 µM. `COC(=O)C1CCC(=O)N1C(c1ccccc1)c1ccc(OC)c(OC)c1` (stereo not given) showed a TGI of over 100 µM. Work on `NC(=O)C(c1ccccc1)N1OC2C(=O)N(c3ccccc3)C(=O)C2C1c1c2ccccc2c(Cl)c2ccccc12` (stereo not given) yielded a TGI of over 100 µM. `CC[C@@]1(C[C@H]2C[C@@]3(C(=O)OC)c4[nH]c5ccccc5c4CCN3C2=O)COC2(CCCCC2)O1` gave a TGI of over 100 µM. With `COc1ccc2c(=O)c(O)c(-c3ccc(OC)c(OC)c3)oc2c1` the TGI was over 100 µM. In the case of `COc1ccc(C2c3cc4c(cc3OC(NNS(=O)(=O)c3ccc(C)cc3)C2C)OCO4)cc1` (stereo not given), the TGI was over 100 µM. Compound `c1ccc(N=C2SC3=Nc4cccc5cccc(c45)N3C2=Nc2ccccc2)cc1` has a TGI of over 100 µM. With `O=C(O)CN(CC(=O)O)C1CCCCC1N(CC(=O)O)CC(=O)NCCN=C=S` (stereo not given) the TGI was over 100 µM. `Oc1cc2c3c(c1)c1cc4c(cc1c[n+]3CC2)OCO4` showed a TGI of 37.3 µM. `Cc1cn(C2CC(N(O)C(N)=O)C(CO)O2)c(=O)[nH]c1=O` (stereo not given) showed a TGI of over 100 µM. Compound `Nc1cccc2cc(Cl)cnc12` has a TGI of over 100 µM. `CC1=C(C)[C@@]2(C)O[C@@]2(C)O[C@@]2(C)O[C@@]12C` was tested, and the TGI was over 100 µM.

What follows are compounds tested on UO-31 renal (assay: DTP human tumour cell line panel, 48 h).
`O=c1[nH][nH]c(=O)n1Cc1ccccc1Cn1c(=O)[nH][nH]c1=O` gave a TGI of over 100 µM. In the case of `CC1C=C(CCCCCCCCCCCC[C@@H](O)[C@@H]2CC[C@@H]([C@@H]3CC[C@@H](C(O)CCCCCCCCCCCCC4=C[C@H](C)OC4=O)O3)O2)C(=O)O1` (stereo not given in full), the TGI was over 100 µM. For `COc1cc([C@@H]2OCC3C(c4ccc5c(c4)OCO5)OCC32)cc(OC)c1OC` (stereo not given in full), the TGI was over 100 µM. `CCOC(=O)c1c2ccccc2n2c(N)c(C(N)=O)nnc12` was tested, and the TGI was over 100 µM. Compound `CC[C@@]1(O)C(=O)OCc2c1cc1n(c2=O)Cc2c-1nc1ccccc1c2/C=N\NC(=O)CN` has a TGI of 5.38 µM. Compound `N#CN=C(N(Cc1ccccc1)Cc1ccccc1)N(Cc1ccccc1)Cc1ccccc1` has a TGI of over 100 µM. In the case of `CNC(=O)C(C)C1CCC2(C)C=CC(=O)C(C)=C2C1O` (stereo not given), the TGI was over 68.3 µM. Compound `CCOC(=O)C(NC(C)=O)(Nc1ccc(F)cc1)C(F)(F)F` (stereo not given) has a TGI of over 100 µM. `CCOc1cc2c(cc1O)/C(=N\OC)C[C@@H]1[C@@H]2CC[C@]2(C)[C@@H](O)CC[C@@H]12` was tested, and the TGI was over 58.5 µM. For `CC1(C)N=C(/C(Cl)=[N+](/[O-])C(=O)c2ccc(F)cc2)C(C)(C)N1O`, the TGI was 37.9 µM. In the case of `COC(=O)[C@H]1CO[C@@H](C(C)(C)C)N1C(=O)N1C=CC(=O)C[C@@H]1C`, the TGI was over 100 µM. `C[n+]1c2ccccc2c(/C=N\NS(=O)(=O)c2ccc(O)c(C(=O)O)c2)c2ccccc21` showed a TGI of over 100 µM. `O=C(Nc1ccc(C2=NCCN2)cc1)c1cncc(C(=O)Nc2ccc(C3=NCCN3)cc2)c1` gave a TGI of over 100 µM. Work on `Clc1ccc(/C=C/c2nc3ccccc3s2)cc1Cl` yielded a TGI of 56 µM. With `Cc1ccc(SCC(CSCCO)OCn2cnc3c2NC(N)=NC32OCCO2)cc1` (stereo not given) the TGI was over 100 µM. `CC(=O)Nc1ccc(-c2nnc(SCC(=O)Nc3ccc([N+](=O)[O-])cc3)o2)cc1` showed a TGI of 34.6 µM. `N.N.N.N.O=[N+]([O-])[O-].[Co+3].[N-]=[N+]=[N-].[N-]=[N+]=[N-]` was tested, and the TGI was over 100 µM. `COC(=O)C1CCC(=O)N1C(c1ccccc1)c1ccc(OC)c(OC)c1` (stereo not given) showed a TGI of over 100 µM. In the case of `NC(=O)C(c1ccccc1)N1OC2C(=O)N(c3ccccc3)C(=O)C2C1c1c2ccccc2c(Cl)c2ccccc12` (stereo not given), the TGI was over 100 µM. Work on `CC[C@@]1(C[C@H]2C[C@@]3(C(=O)OC)c4[nH]c5ccccc5c4CCN3C2=O)COC2(CCCCC2)O1` yielded a TGI of over 100 µM. Work on `COc1ccc2c(=O)c(O)c(-c3ccc(OC)c(OC)c3)oc2c1` yielded a TGI of over 100 µM. Compound `CC(C)CCCCCCCCCCCCC(=O)NCC(=O)NC1C(C)OC(Nc2ncnc3c2ncn3C)C(O)C1O` (stereo not given) has a TGI of 16.9 µM. `COc1ccc(C2c3cc4c(cc3OC(NNS(=O)(=O)c3ccc(C)cc3)C2C)OCO4)cc1` (stereo not given) was tested, and the TGI was over 100 µM. Work on `c1ccc(N=C2SC3=Nc4cccc5cccc(c45)N3C2=Nc2ccccc2)cc1` yielded a TGI of over 100 µM. `CCC12C=CCN3CCC4(C(=C(C(=O)OC)[C@@H]1O)Nc1ccccc14)C32` (stereo not given in full) showed a TGI of 6.49 µM. `O=C(O)CN(CC(=O)O)C1CCCCC1N(CC(=O)O)CC(=O)NCCN=C=S` (stereo not given) showed a TGI of over 100 µM. With `Oc1cc2c3c(c1)c1cc4c(cc1c[n+]3CC2)OCO4` the TGI was over 100 µM. `Cc1cn(C2CC(N(O)C(N)=O)C(CO)O2)c(=O)[nH]c1=O` (stereo not given) was tested, and the TGI was over 100 µM. In the case of `COc1nc(N)c(C(=O)CCl)c(=O)n1C`, the TGI was 67 µM. `O=C1CCC23CC(C=CC=C12)n1c(=O)n(-c2ccccc2)c(=O)n13` (stereo not given) gave a TGI of over 100 µM. With `[N-]=[N+]=Nc1cc(=O)oc2ccccc12` the TGI was over 100 µM. Work on `CC(=O)NC1=C(NCCC(C)C)C(=O)c2ccccc2C1=O` yielded a TGI of over 50 µM. `Nc1cccc2cc(Cl)cnc12` showed a TGI of over 100 µM. In the case of `CC1=C(C)[C@@]2(C)O[C@@]2(C)O[C@@]2(C)O[C@@]12C`, the TGI was over 100 µM. With `O=C([O-])CC(=O)[O-].O=C([O-])CC(=O)[O-].[K+].[Pd+2]` the GI50 was over 100 µM and the TGI was over 100 µM.
